Entries after “also recorded” stand apart in the source; their conditions may differ.
Legend:
C fiber mediated pain = conditions: background statement; cited from earlier work
C fibers = test: Threshold pulse duration for hot pain by 980 nm diode laser, stimulation of C fibers; type: in vivo, human; conditions: healthy volunteer affected by topical capsaicin
Protocol: Subjects: A chronic pain patient with hypersensitivity and a healthy volunteer were tested. Both subjects gave informed consent and the experiments were approved by the local institutional review board. The hairy skin of left hand was used for both volunteers. In preparing the subjects testing, they were asked to respond orally immediately after they perceived any threshold sensation and/or to interrupt lasing pulse by pressing STOP button. They then described the level and type of evoked sensation, location of sensation, how long the sensation lasted, whether the sensation was single (monomodal) sensation or if there were more than one evoked sensations by a single stimulation. Afterwards, the threshold pulse was applied 3 times to different areas with interval of ˜3 min or after the previous sensation (pain) had disappeared. The appearance redness was an indication of skin irritation. Step 1: To test duration of pulse that evoked threshold warmth sensation only, the output power was set to 1.5 W, beam size adjusted to 5 mm. The pulse was applied to the skin. When the volunteer reported warmth (pain) sensation the lasing was stopped. […] The pulse duration for tolerance for hot pain was 2000 ms. […] When this button was pushed the command “stop lasing” was activated, duration of applied pulse was measured and it was indicated on the screen of PC connected to the device by RS232 interface. […]

TRPV1 = target: T1, TRPV1 (Rattus norvegicus, UniProt O35433); test: Whole cell patch recording of diode laser evoked inward currents in TRPV1 positive (type 2) DRG cells; type: cell-based; conditions: capsazepine 10 uM, close superfusion, two minute application; laser pulses 20 ms and 2.41 W (1200 mA)
T1 construct: DRG cells TRPV1 positive cells (Type 2) and TRPV2 positive cells (Type 4) were irradiated; from tissue; host or cells: primary neurons dissociated from rat dorsal root ganglia (type 2 cells)
T1 sequence (O35433 whole entry, the tested form may be a part): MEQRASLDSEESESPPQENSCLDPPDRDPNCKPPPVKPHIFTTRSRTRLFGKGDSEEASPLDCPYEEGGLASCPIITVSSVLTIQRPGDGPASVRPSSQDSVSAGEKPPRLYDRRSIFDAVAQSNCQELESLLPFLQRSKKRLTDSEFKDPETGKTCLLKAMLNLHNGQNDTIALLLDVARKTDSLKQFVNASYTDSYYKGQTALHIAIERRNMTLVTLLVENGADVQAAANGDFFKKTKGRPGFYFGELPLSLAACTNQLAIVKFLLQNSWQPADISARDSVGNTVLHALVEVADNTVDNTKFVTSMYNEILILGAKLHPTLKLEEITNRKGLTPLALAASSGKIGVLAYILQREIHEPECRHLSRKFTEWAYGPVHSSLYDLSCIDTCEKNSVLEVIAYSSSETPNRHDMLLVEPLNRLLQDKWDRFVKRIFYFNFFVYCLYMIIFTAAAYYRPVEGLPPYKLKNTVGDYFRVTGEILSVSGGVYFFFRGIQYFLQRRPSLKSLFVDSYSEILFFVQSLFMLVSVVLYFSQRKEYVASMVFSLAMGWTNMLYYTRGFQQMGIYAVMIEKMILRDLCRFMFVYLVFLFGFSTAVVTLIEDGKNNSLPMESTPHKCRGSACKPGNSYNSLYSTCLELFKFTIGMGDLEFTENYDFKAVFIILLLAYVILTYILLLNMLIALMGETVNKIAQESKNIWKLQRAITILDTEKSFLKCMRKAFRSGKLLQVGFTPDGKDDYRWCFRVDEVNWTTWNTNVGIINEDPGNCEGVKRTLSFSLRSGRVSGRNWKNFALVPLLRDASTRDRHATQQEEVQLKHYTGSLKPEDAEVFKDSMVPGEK
Protocol: Rats were anesthetized with halothane. Following decapitation, the spinal cord was rapidly removed, and the dorsal root ganglia were dissected free. Dissected ganglia were placed in a heated bath (35° C. for 70 min) containing dispase II and collagenase (2 mg/ml; Sigma type 1). Following wash and trituration, recovered cells were plated on 10 polylysine coated, 35 mm Petri dishes. Cells were bathed continuously in a rat Tyrode's solution containing (mM): 140 NaCl, 4 KCl, 2 MgCl2, 2 CaCl2, 10 glucose, and 10 HEPES, pH adjusted to 7.4 with NaOH. Only one cell was used from each dish. Bath temperature was maintained at 32° C. by a feedback-controlled bath heater (TCbip; Cell Microsystems).
Electrodes were prepared (2-4 MΩ) from glass pipettes using a Brown and Flaming type horizontal puller (Sutter model P87). Whole cell recordings were made with an Axopatch 200B (Axon Instruments). Stimuli were controlled and digital records captured with pClamp 8.2 software and Digidata 1322A A/D converter (Axon Instruments). Series resistance (Rs) was compensated 40-60% with Axopatch 200B compensation circuitry. Whole cell resistance and capacitance was determined by Clampex 8.2 software utility. A liquid junction potential of approximately 4 mV was not corrected.
Recordings were made from cells with diameters between 25 and 45 μm.
Lass 10 M investigational diode laser (Lasmed LLC) was used in all studies. […]

## CN1CC[C@]23c4c5ccc(O)c4O[C@H]2[C@@H](O)C=C[C@H]3[C@H]1C5 [morphine]
C fiber mediated pain
  effectiveness in inhibiting C fiber mediated pain compared with A delta fiber mediated pain: much more effective

## COc1cc(CNC(=O)CCCC/C=C/C(C)C)ccc1O [Capsaicin]
C fibers; 1.5 W, 5 mm, without delay of individual reaction (1270 ms without capsaicin)
  threshold pulse duration by reflex time monitored with infrared CCD camera: 650 ms
C fibers; output power 1.5 W, beam size 5 mm, hairy skin of left hand, lasing stopped by volunteer (1300 ms without capsaicin)
  threshold pulse duration for hot pain: 800 ms

## Oc1cc2c(cc1O)CN(C(=S)NCCc1ccc(Cl)cc1)CCC2 [capsazepine]
TRPV1
  currents evoked by 980 nm stimuli: dramatically reduced; also recorded: reduced currents

Source: US8029553B2, “Portable laser and process for pain research” (priority 2004, dated 2011)
